{"source": "paper PMC11755785", "about": "(Langmuir, 2025)", "format_in_all_cases": "physicochemical", "key": {"[1]": {"assay": "UVA1 (365 nm) photodegradation in isochoric acetonitrile/water solvent", "conditions": "UVA1 365 nm, 25 μM", "procedure": "(§1) The samples were obtained after passage for appropriate periods and measured using an UV–vis spectrophotometer in the maximum range between 200 and 700 nm (arranged on demand) from long wavelengths toward short wavelengths to avoid unnecessary irradiation of the UV region. To obtain HPLC chromatograms, aliquots of the UV-irradiated solution were obtained by pipetting at 0, 1/5, 1/2, 1, 2, 3, 4, 24, 48, 72, 96, 120, 144, and 168 h for AVB and at 0, 1, 2, 3, and 18 h for CUR. To obtain those of OXB in the absence or presence of β-CD, the invariable samples were certified at 0 and 48 h. For the samples in acetonitrile aqueous solution or methanol aqueous solution at a ratio of 7:3, the time evolution of the UVA1 irradiated solution was examined under similar conditions."}, "[2]": {"assay": "1H NMR titration of keto-enol and diketo tautomeric species", "procedure": "^1H NMR measurements were conducted using a 400 MHz NMR spectrometer (JNM-ECZ 400 S, Japan Electronics Co., Ltd., Tokyo, Japan). Sample solutions were prepared using D2O and methanol-d4 as the protic solvent, acetonitrile-d3 as the aprotic solvent, and their mixtures, with sample concentrations exceeding 1.5% (w/v). The chemical shifts of the samples were calibrated using the internal tetramethylsilane (TMS) signal as the zero point, whereas the solvent signals in the literature served as reference points. When sodium salts were required, the neutral AVB species in D2O were dissolved in equimolar amounts of aqueous NaOH and methanol-d4, followed by drying under reduced pressure in a rotary evaporator and heating to dryness below Tm of the sodium salts. The formation of sodium salts was confirmed by measuring Tm using a differential scanning calorimeter (DSC8230, Rigaku Co., Ltd., Tokyo, Japan).\nIn the one-dimensional (1D) ^1H NMR spectra, the integral intensities correspond to the relative stoichiometry of protons for the species, except for the signals assigned to the stable isotopes of deuterated solvents. We could recognize the aromatic proton signals of AVB, but the corresponding signals sometimes overlapped between its keto-enol and diketo species, depending upon the solvent composition. The signals of the aromatic protons at the para positions to the keto/enol substituents were neglected because of the high probability of overlap, in which the chemical shift drifts, Δδ, related to the shielding effect are not noticeably accompanied by the electronic states in the keto/enol substituents.\nWe chose the signals of the aromatic protons at the ortho positions and the aliphatic protons at the ortho substituents (tert-butyl and methoxy groups) to keto/enol substituents and measured their integral intensities. Using the simultaneous equations built as linear combinations of integral values for the isolated and overlapping signals, we determined the molar ratio of the keto-enol and diketo species."}, "[3]": {"assay": "UVA1 (365 nm) photodegradation in aqueous buffer, UV–vis spectra / RP-HPLC", "conditions": "for UVA1 photodegradation (spectral change): 50 μM, aqueous; for diketo increase to the keto-enol decrease: UVA1 365 nm", "procedure": "as §1"}, "[4]": {"conditions": "70% methanol (methanol-d4/D2O = 7:3)"}, "[5]": {"conditions": "isochoric acetonitrile/water solvent"}}, "data": [{"substance": "p-tert-butyl-p-methoxydibenzoylmethane [AVB]", "values": [{"measurement": "effect of equimolar and 4 mM β-CD on photodegradation velocity / first-order rate", "setting": "[1]", "result": "reduced the photodegradation velocity"}, {"measurement": "molar ratio of diketo species", "setting": "[2]; [4]", "result": 15.3, "unit": "%"}, {"measurement": "molar ratio of keto-enol species", "setting": "[2]; [4]", "result": 84.7, "unit": "%"}, {"measurement": "molar ratio of diketo species", "setting": "[2]; [5]", "result": 9.3, "unit": "%"}, {"measurement": "molar ratio of keto-enol species", "setting": "[2]; [5]", "result": 90.7, "unit": "%"}, {"measurement": "UVA1 photodegradation (spectral change)", "setting": "[3]; absence of β-CD", "result": "gradually photodegraded"}, {"measurement": "UVA1 photodegradation (spectral change)", "setting": "[3]; presence of β-CD", "result": "insignificantly degraded"}, {"measurement": "diketo increase to the keto-enol decrease", "setting": "[3]; 25 μM β-CD", "result": 20.1, "unit": "%"}, {"measurement": "diketo increase to the keto-enol decrease", "setting": "[3]; 4 mM β-CD", "result": 23.9, "unit": "%"}, {"measurement": "diketo increase to the keto-enol decrease", "setting": "[3]; no β-CD", "result": 19.3, "unit": "%"}]}]}
